This note sets out measurements from patent US12714698B2, “Compositions and methods for treating or preventing dermal disorders” (Drexel University, priority 2015, dated 2026).

For assay [1], the system named is human cardiac fibroblasts. The assay is described as follows: Nanostring analysis of mRNA levels. It is filed as cell-based. The note with it: rapamycin. How it is done:
(§1) Cell culture experiments utilizing NRTIs were of the following design. Cultures of either human lung or cardiac fibroblasts were cultivated according to standard culture protocols for these cells (Cristofalo, et al., Journal of Tissue Culture Methods 1980, 6:117-121). Parallel sets of cultures were maintained in normal growth media or in normal growth media with the addition of 1 nM rapamycin. Cultures were maintained with 1 nM rapamycin (Enzo Biologicals) for two weeks before exposure to NRTIs. Cell cultures were exposed to NRTIs at indicated concentrations in individual experiments (generally 10-20 μg/ml) for 7 days, with a change of media and fresh NRTIs at day 4. Mitochondrial measurements, bioanalyzer measurements, immunoblotting for protein expression and phosphorylation status, and assays for senescence were performed at the end of this 7-day period.
Differences in mitochondria-related gene expression was examined using a nanostring approach which allows multiplex evaluation of mRNA species in the absence of amplification and provides a direct count of mRNA molecules. The mRNA levels paralleled the changes observed in protein levels as mRNA levels for all subunits increased in cells exposed to NRTIs while rapamycin decreased mRNA levels for all subunits (FIGS. 2D-2H).

The test system of another assay is p53 and MDM2. Nature of the assay: p53/MDM2 co-immunoprecipitation and p53 forms after proteasome inhibition. It is filed as cell-based, human. The note with it: after proteasome inhibitor. How it is done:
FIGS. 11A-11F illustrate status of p53 in human cardiac fibroblast cultures exposed to NRTIs and in rapamycin-treated cultures. FIG. 11A is a bar graph illustrating comet assay results for cells exposed to NRTIs or hydrogen peroxide as a positive control. The white bar represents control data; grey bar represents data from cells exposed to 10 or 20 μg/ml NRTI for 7 days; and the black bar represents data from cells exposed to 200 μM hydrogen peroxide for 2 hours. […] FIG. 11B depicts the results of an immunoprecipitation experiment using antibodies against p53. Cell lysates from control and rapamycin-treated cultures, with or without NRTI exposure for 7 days, were subjected to immunoprecipitation using anti-p53 antibodies followed by immunoblot analysis for MDM2 and subsequently for p53. […] FIG. 11F is a bar graph illustrating relative intensity of cytosolic MDM2 staining as determined by Image J Analysis.
Cell protein extracts were prepared by extracting with radioimmunoprecipitation assay (RIPA) buffer containing a protease inhibitor cocktail (Sigma-Aldrich) and phosphatase inhibitors, NaF and sodium orthovanadate. Protein concentration was quantified using a bicinchoninic acid (BCA) assay (Pierce Biotechnology). […] For co-immunoprecipitation, cell protein extracts were prepared in HNTG buffer containing a protease inhibitor cocktail and quantified using BCA assay. […]

The subject of assay [2] is dermal atrophy and actinic keratosis. Nature of the assay: Single site open label study, topical application in a patient. The conditions noted are these: 14 days of rapamycin treatment in an emulsified gel preparation, digital caliper. It is filed as in vivo, human. How it is done:
In certain embodiments, dermal atrophy is evaluated by measurement of the dermal layer utilizing a calibrated digital caliper measurement of the dermal layer. In other embodiments, improvement in seborrheic keratosis, lentigines, pseudoscars, coarse wrinkles, and epidermal thickening is evaluated through an investigator evaluation rating scale of 1-4, in which 1 is normal with no sign of lesion; 2 represents minor lesions; 3 represents lesions that are distinct features relative to normal skin; and 4 represents lesions that are of high severity. […] In yet other embodiments, lesions are evaluated by area measurement using manual measurement of the lesion or through analysis of images taken by investigators or research study staff.
Patients presenting to a physician with a diagnosis of dermal atrophy, seborrheic keratosis, actinic keratosis, lentigines, senile pseudoscars, or coarse wrinkles were selected for administration of a composition of the invention. Dermal thickness was quantified using a Mitoutoyo digital caliper with certified accuracy to 0.001 mm. […]
A single site open label study was performed. A patient presenting with an area of dermal atrophy and actinic keratosis on the hand was evaluated for application of Formulation R. the contralateral hand with similar dermal thickness but no actinic keratosis was used as a control. […]

Assay [3] has as its system human cardiac fibroblasts. Nature of the assay: Immunoblot of electron transport chain and mitochondrial clearance proteins. It is filed as cell-based. As to the method: as §1
Cell protein extracts were prepared by extracting with radioimmunoprecipitation assay (RIPA) buffer containing a protease inhibitor cocktail (Sigma-Aldrich) and phosphatase inhibitors, NaF and sodium orthovanadate. Protein concentration was quantified using a bicinchoninic acid (BCA) assay (Pierce Biotechnology). Western blot analysis was performed using 15 to 30 μg of protein extracts that were run on SDS-PAGE and transferred onto nitrocellulose (Biorad) membranes. Blots were incubated with antibodies specific for: beta-actin (Sigma-Aldrich), TFAm, parkin, p16, phospho(S82)HSP27, HSP27 (Santa Cruz Biotechnologies), p53, 21, catalase, MDM2 (EMD Millipore), VDAC, phospho(S235/236)-ribosomal protein S6, ribosomal protein S6, phospho(S166)-MDM2, phospho(5473)-AKT, AKT, beta-tubulin (Cell Signaling), p62 (Enzo Biologicals), IL-6 (NeoBiolab), lamin B1, PINK1, and Mitoprofile Total OXPHOS Cocktail (complex I-NDUFB8 subunit, CII-SDHB subunit, CIIIUQCRC2 subunit, and CIV-mitochondrial COX1 subunit) (Abcam) according to manufacturers' instructions. […] For co-immunoprecipitation, cell protein extracts were prepared in HNTG buffer containing a protease inhibitor cocktail and quantified using BCA assay. […]
(A western blot detects proteins with antibodies after separation by electrophoresis.)

A further assay concerns human fibroblasts. The assay is described as follows: Ethidium bromide mitochondrial stress in human fibroblasts. From the text: Human fibroblasts were exposed to ethidium bromide for 7 days and cell viability measured at that time.

In the case of `CO[C@H]1C[C@@H]2CC[C@@H](C)[C@@](O)(O2)C(=O)C(=O)N2CCCC[C@H]2C(=O)O[C@H]([C@H](C)C[C@@H]2CC[C@@H](O)[C@H](OC)C2)CC(=O)[C@H](C)/C=C(\C)[C@@H](O)[C@@H](OC)C(=O)[C@H](C)C[C@H](C)/C=C/C=C/C=C/1C` [rapamycin], the “mRNA levels for ETC subunits” value in assay [1] is reported as “decreased”. Moreover, the “high molecular weight forms of p53” value in the assay on p53 and MDM2 is reported as “prominent”. Besides, in assay [2], the “dermal thickness in atrophic skin” value is “increases dermal thickness”. The “steady state levels of NDUFB8, SDHB, UQCRC2 and mt-CO1” value in assay [3] (cells treated with rapamycin vs control) is on record as “lower”. For the same molecule, the “ETC protein levels on exposure to NRTIs” value in assay [3] (rapamycin-treated cells) is “not elevated”. In addition, in assay [3] (response to rapamycin), the “level of p62/SQSTM1” value is on record as “decreased”. In addition, in the assay with human fibroblasts (ethidium bromide for 7 days), the “survival of human fibroblasts following mitochondrial stress” value was “increases the survival”. Further, the “mitochondrial network following exposure to EthBr” value with human fibroblasts (rapamycin treated cells) is “able to maintain their mitochondrial network”. Further, the mitochondrial network entry with human fibroblasts (rapamycin treated cells, no toxin) was “normal mitochondrial network”.
